Data published in patent publication US20230295157A1, “3-(1H-IMIDAZOL-2-YL)-2,3,8,8A-TETRAHYDROINDOLIZIN-5(1H)-ONE DERIVATIVES USEFUL AS FACTOR XIA INHIBITORS” (JANSSEN PHARMACEUTICA NV, priority 2020, published 2023).
Read-outs that look alike come from different tables or passages of the source.

How the values were obtained:
Factor XIa = Factor XIa (Homo sapiens (Human), UniProt P03951); experiment: Factor XIa inhibition assay (FLINT) utilizing a fluorophore-quencher pair peptide substrate; assay type: biochemical; settings: 30 min preincubation, kinetic reads over 30 min, read-out: FXIa Kin Inh IC50
Factor XIa, sequence (P03951 388-625): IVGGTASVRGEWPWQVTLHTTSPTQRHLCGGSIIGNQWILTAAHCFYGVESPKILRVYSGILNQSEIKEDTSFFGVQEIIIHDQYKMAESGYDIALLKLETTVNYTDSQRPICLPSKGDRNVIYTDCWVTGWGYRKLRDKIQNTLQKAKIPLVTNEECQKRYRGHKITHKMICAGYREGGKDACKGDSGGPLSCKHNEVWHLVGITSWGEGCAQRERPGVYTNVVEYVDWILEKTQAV
Factor XIa, sequence (P03951 19-387 partner): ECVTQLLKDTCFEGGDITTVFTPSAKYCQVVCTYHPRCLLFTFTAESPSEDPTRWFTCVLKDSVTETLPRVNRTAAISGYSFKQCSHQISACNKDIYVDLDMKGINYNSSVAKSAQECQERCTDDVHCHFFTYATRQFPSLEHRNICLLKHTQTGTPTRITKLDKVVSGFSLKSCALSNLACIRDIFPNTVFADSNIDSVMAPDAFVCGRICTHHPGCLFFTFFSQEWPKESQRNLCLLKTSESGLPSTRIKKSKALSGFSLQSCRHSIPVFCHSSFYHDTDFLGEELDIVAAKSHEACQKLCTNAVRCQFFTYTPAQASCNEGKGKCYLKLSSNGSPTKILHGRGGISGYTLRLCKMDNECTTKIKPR
In short: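 FXIa ([…]) preincubated 30 min with compound (11-point 3-fold dilution, top 100 nM, 2% DMSO), then 15 μM quenched FXI Arg146-based peptide added; Tris pH 7.5, CaCl2, BSA, CHAPS. Fluorescence 485/520 nm read kinetically every 5 min over 30 min at RT; IC50 by 4-parameter fit.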

human plasma kallikrein = human plasma kallikrein (Homo sapiens (Human), UniProt P03952); experiment: Kallikrein inhibition assay (FLINT) utilizing a quenched AMC peptide substrate; assay type: biochemical; settings: 30 min preincubation, read-out: Kallikrein Kin Inh IC50
human plasma kallikrein, sequence (P03952 391-638): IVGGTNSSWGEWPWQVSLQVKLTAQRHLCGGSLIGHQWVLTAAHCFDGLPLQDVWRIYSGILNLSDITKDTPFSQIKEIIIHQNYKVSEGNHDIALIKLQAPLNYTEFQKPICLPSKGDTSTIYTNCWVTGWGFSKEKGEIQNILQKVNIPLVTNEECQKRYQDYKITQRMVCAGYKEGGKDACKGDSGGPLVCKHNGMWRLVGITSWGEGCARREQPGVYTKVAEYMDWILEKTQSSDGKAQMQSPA
human plasma kallikrein, sequence (P03952 20-390 partner): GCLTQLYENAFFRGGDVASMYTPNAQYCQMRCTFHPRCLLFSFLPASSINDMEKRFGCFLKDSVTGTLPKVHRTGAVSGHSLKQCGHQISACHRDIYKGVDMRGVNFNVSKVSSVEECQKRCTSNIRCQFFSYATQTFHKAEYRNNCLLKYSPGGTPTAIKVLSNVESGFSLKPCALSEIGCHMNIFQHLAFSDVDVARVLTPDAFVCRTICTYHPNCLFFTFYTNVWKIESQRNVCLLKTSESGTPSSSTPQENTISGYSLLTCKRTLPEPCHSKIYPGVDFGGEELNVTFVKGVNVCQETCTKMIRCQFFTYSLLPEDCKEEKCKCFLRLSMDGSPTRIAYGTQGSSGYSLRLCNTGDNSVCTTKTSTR
In short: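 Enzyme (2 nM final) pre-incubated 30 min at room temperature with compound (11-point, 3-fold, top 1 μM, 2% DMSO), then 50 μM Z-Gly-Pro-Arg-AMC added in Tris pH 7.5 buffer. Kinetic fluorescence 340/440 nm every 5 min over 30 min; IC50 from 4-parameter logistic fit.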

[1] = 5Fam-[…]-K5Tamra substrate 15 μM
[2] = kinetic reads over 30 min, Z-Gly-Pro-Arg-AMC substrate 50 μM
[3] = 5Fam-KLTRAETV-K5Tamra substrate 15 μM

Row | IC50 (Factor XIa; [1]) [nM] | IC50 (human plasma kallikrein; [2]) [µM] | IC50 (Factor XIa; [3]) [nM] | IC50 (human plasma kallikrein; μM, kinetic reads) [µM] | SMILES
1 |  | 0.0006 | 0.2 |  | Nc1n[nH]c2cc(-c3cnc([C@@H]4CCC5CC(c6c(-n7cnnn7)ccc(Cl)c6F)=CC(=O)N54)[nH]3)ccc12 (stereo partly drawn) [Example 313, (3S)-3-(5-(3-Amino-1H-indazol-6-yl)-1H-imidazol-2-yl)-7-(3-chloro-2-fluoro-6-(1H-tetrazol-1-yl)phenyl)-2,3,8,8a-tetrahydroindolizin-5(1H)-one]
2 | 5.2 | 0.0056 |  |  | Cn1c(=O)[nH]c2ccc(-c3cnc([C@@H]4CC[C@H]5CC(c6c(-n7cnnn7)ccc(Cl)c6F)=CC(=O)N54)[nH]3)cc21 (relative stereo) [Example 299, 6-(2-((3S,8aS*)-7-(3-Chloro-2-fluoro-6-(1H-tetrazol-1-yl)phenyl)-5-oxo-1,2,3,5,8,8a-hexahydroindolizin-3-yl)-1H-imidazol-5-yl)-1-methyl-1H-benzo[d]imidazol-2(3H)-one]
3 |  | 0.542 | 85.8 |  | O=C1C=C(c2c(-n3cnnn3)ccc(Cl)c2F)CC2CC[C@@H](c3nc(-c4cnn[nH]4)c[nH]3)N12 (stereo partly drawn) [Example 332, (3S)-3-(4-(1H-1,2,3-Triazol-5-yl)-1H-imidazol-2-yl)-7-(3-chloro-2-fluoro-6-(1H-tetrazol-1-yl)phenyl)-2,3,8,8a-tetrahydroindolizin-5(1H)-one]
4 |  | 0.0095 | 0.6 |  | CO[C@@H]1C[C@@H](c2nc(-c3ccc(N)nc3F)c[nH]2)N2C(=O)C=C(c3c(-n4cnnn4)ccc(Cl)c3F)CC12 (stereo partly drawn) [Example 327, (1R,3S)-3-(4-(6-Amino-2-fluoropyridin-3-yl)-1H-imidazol-2-yl)-7-(3-chloro-2-fluoro-6-(1H-tetrazol-1-yl)phenyl)-1-methoxy-2,3,8,8a-tetrahydroindolizin-5(1H)-one]
5 |  | 0.0136 | 17.1 |  | Cc1cc2c(-c3cnc([C@@H]4CCC5CC(c6c(-n7cnnn7)ccc(Cl)c6F)=CC(=O)N54)[nH]3)c[nH]c2cn1 (stereo partly drawn) [Example 381, (3S)-7-(3-chloro-2-fluoro-6-(1H-tetrazol-1-yl)phenyl)-3-(5-(5-methyl-1H-pyrrolo[2,3-c]pyridin-3-yl)-1H-imidazol-2-yl)-2,3,8,8a-tetrahydroindolizin-5(1H)-one]
6 |  |  | > 100 | > 1 | Cn1cnc(-c2c[nH]c([C@@H]3CCC4CC(c5c(-n6cnnn6)ccc(Cl)c5F)=CC(=O)N43)n2)n1 (stereo partly drawn) [Example 255, (3S)-7-[3-Chloro-2-fluoro-6-(tetrazol-1-yl)phenyl]-3-[4-(1-methyl-1,2,4-triazol-3-yl)-1H-imidazol-2-yl]-2,3,8,8a-tetrahydro-1H-indolizin-5-one]
7 | 1 | 0.0084 |  |  | CC1(C)C[C@@H](c2ncc(-c3ccc(N)nc3Cl)[nH]2)N2C(=O)C=C(c3c(-n4cnnn4)ccc(Cl)c3F)C[C@H]21 (relative stereo) [Example 338, (3S,8aS)-3-(5-(6-Amino-2-chloropyridin-3-yl)-1H-imidazol-2-yl)-7-(3-chloro-2-fluoro-6-(1H-tetrazol-1-yl)phenyl)-1,1-dimethyl-2,3,8,8a-tetrahydroindolizin-5(1H)-one]

Further lines, the molecule ahead of its results:

Row | SMILES | IC50 (Factor XIa; [1]) [nM] | IC50 (human plasma kallikrein; [2]) [µM] | IC50 (Factor XIa; [3]) [nM] | IC50 (human plasma kallikrein; μM, kinetic reads) [µM]
8 | [2H]c1c(NC)nc(F)c(-c2cnc([C@H]3CC[C@@H]4CC(c5c(-n6cnnn6)ccc(Cl)c5F)=CC(=O)N43)[nH]2)c1[2H] (relative stereo) [Example 133, (3R*,8aR)-7-(3-chloro-2-fluoro-6-(1H-tetrazol-1-yl)phenyl)-3-(5-(2-fluoro-6-(methylamino)pyridin-3-yl-4,5-d2)-1H-imidazol-2-yl)-2,3,8,8a-tetrahydroindolizin-5(1H)-one] | 0.7 | 0.0075 |  | 
9 | COC(=O)c1nccc(-c2cnc([C@@H]3CC[C@@H]4CC(c5c(-n6cc(Cl)nn6)ccc(Cl)c5F)=CC(=O)N43)[nH]2)c1F [Example 50] |  | 0.0316 | 19.8 | 
10 | CC(C)(O)CCc1nccc(-c2cnc([C@@H]3CC[C@H]4CC(c5c(-n6cnnn6)ccc(Cl)c5F)=CC(=O)N43)[nH]2)c1F (single isomer, unassigned) [Example 159, (3*S,8a*S)-7-(3-chloro-2-fluoro-6-(1H-tetrazol-1-yl)phenyl)-3-(5-(3-fluoro-2-(3-hydroxy-3-methylbutyl)pyridin-4-yl)-1H-imidazol-2-yl)-2,3,8,8a-tetrahydroindolizin-5(1H)-one] |  | 0.0222 | 5.4 | 
11 | O=C1C=C(c2c(-n3cnnn3)ccc(Cl)c2F)C[C@H]2CC[C@@H](c3ncc(-c4c[nH]c5cnccc45)[nH]3)N12 (single isomer, unassigned) [Example 19] |  | 0.0074 | 2.4 | 
12 | O=C1C=C(c2c(-n3cnnn3)ccc(Cl)c2F)C[C@@H]2CC[C@@H](c3ncc(-c4ccnc([C@H](O)C(F)(F)F)c4F)[nH]3)N12 (single isomer, unassigned) [Example 170] |  | 0.0318 | 17.9 | 
13 | CC(=O)Nc1cnc(C(F)(F)F)cc1-c1cnc([C@@H]2CC[C@@H]3CC(c4c(-n5cnnn5)ccc(Cl)c4F)=CC(=O)N32)[nH]1 [Example 245, N-[4-[2-[(3S,8aR)-7-[3-Chloro-2-fluoro-6-(tetrazol-1-yl)phenyl]-5-oxo-2,3,8,8a-tetrahydro-1H-indolizin-3-yl]-1H-imidazol-5-yl]-6-(trifluoromethyl)-3-pyridyl]acetamide] |  | 0.558 | 76.8 | 
14 | NC(=O)c1cc(-c2c[nH]c([C@@H]3CCC4CC(c5c(-n6cnnn6)ccc(Cl)c5F)=CC(=O)N43)n2)cs1 (stereo partly drawn) [Example 219, 4-(2-((3S)-7-(3-Chloro-2-fluoro-6-(1H-tetrazol-1-yl)phenyl)-5-oxo-1,2,3,5,8,8a-hexahydroindolizin-3-yl)-1H-imidazol-4-yl)thiophene-2-carboxamide] |  | 0.0019 | 2.1 | 
15 | O=C1C=C(c2c(-n3cnnn3)ccc(Cl)c2F)CC2CC[C@@H](c3nc(-c4ccnc(OC(F)F)c4)c(F)[nH]3)N12 (stereo in doubt) [Example 3, (S)-7-[3-Chloro-2-fluoro-6-(tetrazol-1-yl)phenyl]-3-[4-[2-(difluoromethoxy)-4-pyridyl]-5-fluoro-1H-imidazol-2-yl]-2,3,8,8a-tetrahydro-1H-indolizin-5-one] | 3.9 | 0.0054 |  | 
16 | O=C1C=C(c2c(-n3cnnn3)ccc(Cl)c2F)C[C@H]2CC[C@H](c3ncc(-c4ccnc(-n5ccnn5)c4F)[nH]3)N12 (single isomer, unassigned) [Example 71, (3R*,8aR)-7-(3-chloro-2-fluoro-6-(1H-tetrazol-1-yl)phenyl)-3-(5-(3-fluoro-2-(1H-1,2,3-triazol-1-yl)pyridin-4-yl)-1H-imidazol-2-yl)-2,3,8,8a-tetrahydroindolizin-5(1H)-one] | 13.8 | 0.0194 |  | 
17 | O=C1C=C(c2cc(Cl)ccc2-n2cc(C(F)(F)F)nn2)C[C@H]2CC[C@@H](c3ncc(-c4ccc5[nH]c(=O)cnc5c4F)[nH]3)N12 (relative stereo) [Example 59, 6-(2-((3S*,8aR*)-7-(5-chloro-2-(4-(trifluoromethyl)-1H-1,2,3-triazol-1-yl)phenyl)-5-oxo-1,2,3,5,8,8a-hexahydroindolizin-3-yl)-1H-imidazol-5-yl)-5-fluoroquinoxalin-2(1H)-one] | 3.1 | 0.012 |  | 
18 | NC(=O)c1ncc(-c2cnc([C@@H]3CC[C@@H]4CC(c5c(-n6cc(Cl)nn6)ccc(Cl)c5F)=CC(=O)N43)[nH]2)s1 [Example 208, 5-(2-((3S,8aR)-7-(3-Chloro-6-(4-chloro-1H-1,2,3-triazol-1-yl)-2-fluorophenyl)-5-oxo-1,2,3,5,8,8a-hexahydroindolizin-3-yl)-1H-imidazol-5-yl)thiazole-2-carboxamide] |  | 0.0078 | 4.6 | 
